Assay [1] concerns PMA induced ear oedema. Put plainly: Phorbol 12-myristate 13-acetate induced ear oedema in CD1 mice. Format: in vivo. Here is the method: Male CD1 mice (Iffa Credo, France) weighing 30-40 g were randomly grouped (n=6 in test group of which the untreated ear served as negative control; 6 in positive control group which also served as their own negative control group). Test compounds, as well as vehicle (Trans-phase Delivery System, containing benzyl alcohol 10%, acetone 40% and isopropanol 50%) (all from Kemika, Croatia), were administered topically to the internal surface of the left ear thirty minutes prior to administration of phorbol 12-myristate 13-acetate (PMA) (Sigma, USA). Test compounds were administered at a dose of 100, 250 or 500 μg/15 μL/ear. Thirty minutes later, 0.01% PMA solution in acetone was applied topically to the inner surface of the left ear of each animal in a volume of 12 μL/ear. During the treatment and challenge (stimulation), animals were anaesthetized with anaesthesia by inhalation. Six hours following challenge, animals were euthanized by intraperitoneal thiopental injection (PLIVA, Croatia). For assessing the auricular oedema, 8 mm discs were cut out of left and right auricular pinna and weighed. The degree of oedema was calculated by subtracting the weight of 8 mm disc of the untreated ear from that of the treated contralateral ear. The inhibition of oedema in the treated animals, presented in the Table 8, is expressed as percentage compared to control mice (0%).

Assay [2] deals with LPS-induced septic shock. Kind of assay: Septic shock induced by bacterial lipopolysaccharide in male BALB/cJ mice. It counts as in vivo. The note with it: 24 hours. The method, then: Male BALB/cJ mice, (Iffa Credo, Lyon, France) 8 weeks old, weighing 25 g were randomly grouped (n=10 in testing groups and 15 in control group). Animals were primed with 4 μg bacterial lipopolysaccharide (LPS) that was dissolved in saline and administered i.pl. After 18-24 hours animals were challenged by an intravenous injection of 90 μg LPS in a volume of 0.2 mL. Animals were treated with the test compounds or the vehicle (control) intraperitoneally . . . or per os 30 min prior to each injection of LPS. Survival throughout 24 hours was monitored.

Turning to `CCC1OC(=O)C(C)C(OC2CC(C)(OC)C(OC(=O)CCN(CC)CC)C(C)O2)C(C)C(OC2OC(C)CC(N(C)C)C2O)C(C)(OC)CC(C)C(=O)NC(C)C(O)C1(C)O` (centres unmarked) [Example 8, 4″-O-(3-Diethylamino-propionyl)-6-O-methyl-9a-aza-9a-homoerythromycin A], the entries for the “Oedema (% inhibition)” value in assay [1] (100 μg/ear topical), in assay [1] (250 μg/ear topical) and in assay [1] (500 μg/ear topical) were 54%, 74% and 94%, respectively. The “Survival (%)” value in assay [2] (10 mg/kg i.p.) is 50%; in assay [2] (100 mg/kg p.o.) it was 100%.

As for `CC[C@H]1OC(=O)[C@H](C)[C@@H](O[C@H]2C[C@@](C)(OC)[C@@H](O)[C@H](C)O2)[C@H](C)[C@@H](O[C@@H]2O[C@H](C)C[C@H](N(C)C)[C@H]2O)[C@](C)(O)C[C@@H](C)CN(C)[C@H](C)[C@@H](O)[C@]1(C)O` [azithromycin, reference compound], the figures for the “Oedema (% inhibition)” value in assay [1] (100 μg/ear topical), in assay [1] (250 μg/ear topical) and in assay [1] (500 μg/ear topical) were 0%, 83% and 90%, respectively. Besides, the entries for the “Survival (%)” value in assay [2] (1 mg/kg p.o.), in assay [2] (10 mg/kg p.o.) and in assay [2] (100 mg/kg p.o.) were 30%, 60% and 70%, respectively.

These data come from US8080529B2, “Macrolides with anti-inflammatory activity” (Glaxo Group Limited, priority 2005, dated 2011).
